Results: article PMC11679033, “Assessing the Potential Synergistic/Antagonistic Effects of Citrinin and Cannabidiol on SH-SY5Y, HepG2, HEK293 Cell Lines, and Human Lymphocytes” (Toxins, 2024)
Marks after values point to notes of the source that are not given here.

Assays:
[1] = test system: human peripheral blood lymphocytes; test: Alkaline comet assay; format: cell-based; conditions: 24 h; CIT 30 µM, CBD 1 µM, bleomycin 1.25 µg/mL
Protocol: (§1) The experimental design included the establishment of lymphocyte cultures, and the 24 h treatments with the test compounds, performed according to the last OECD recommendations, given in the Test Guideline No. 487—In Vitro Mammalian Cell Micronucleus Test.
(§2) The selection of specific concentrations of test compounds adhered to the guidelines for in vitro genotoxicity testing using comet assay. […] Solutions used in testing were prepared just prior to treatment by dissolving the test compounds in ethanol (Kemika, Zagreb, Croatia).
(§3) Two independent trials, with six experimental groups each, were conducted. A total of six replicate cultures for every single experimental group were established. This step was carried out as follows: aliquots of heparinized blood (V = 600 μL per culture) were pipetted into a growth medium RPMI-1640 (Gibco, Grand Island, NY, USA) supplemented with 10% fetal calf serum (Gibco, Grand Island, NY, USA) and antibiotics (penicillin and streptomycin; Sigma-Aldrich, Steinheim, Germany). Lymphocytes were stimulated with a mitogen phytohemagglutinin (Remel, Lenexa, KS, USA) in order to induce cell division prior to exposure to the test chemicals. Cultures were maintained in the humidified atmosphere of 5% CO2 at 37 °C (Heraeus Hera Cell 240 incubator; Langenselbold, Germany).
(§4) Negative controls (NCs) were non-treated lymphocytes. Solvent controls (SCs) were lymphocytes treated with ethanol (its final concentration in the culture corresponded to 0.03%). Positive controls (PCs) were lymphocytes treated for 24 h with bleomycin at 1.25 µg/mL (according to [69]). The other three groups were lymphocytes exposed to single CIT, single CBD, and their combination (CIT + CBD, at the same concentrations).
(§5) Treatments with test compounds started 20 h after the initial establishment of the cell cultures and lasted for 24 h. Upon completion of the exposure, aliquots of 100 µL of the treated cultures were pipetted in sterile conditions and used to prepare microgels for the alkaline comet assay. The remaining content of flasks was further processed using Cytokinesis-Block Micronucleus Cytome (CBMN Cyt) Assay.

[2] = test system: human peripheral blood lymphocytes; test: Cytokinesis-Block Micronucleus Cytome (CBMN Cyt) Assay; conditions: 24 h, citrinin 30 µM, CBD 1 µM, bleomycin 1.25 µg/mL
Protocol: as §1, §2, §3, §4, §5
CBMN Cyt Assay was performed according to standard protocols proposed for micronucleus assay. Upon completion of the exposure, lymphocyte cultures were subjected to centrifugation at 100× g using a benchtop centrifuge (ROTOFIX 32A, Hettich, Tuttlingen, Germany). During this process, cells settled to the bottom of the tube. The growth medium with tested compounds was removed by pipetting, discarded and replaced with a fresh amount of complete growth medium RPMI-1640 that contained Cytochalasin B (cytoB; Sigma-Aldrich, Steinheim, Germany) at a final concentration of 6 µg/mL. This procedure was timed to the 44th hour of lymphocyte cultivation, as that time is a critical point for the addition of cytoB to inhibit cytokinesis and obtain binucleated cells. All treated and control cultures were further maintained in the previously described conditions at 37 °C until the end of the 72nd hour of cultivation, as proposed by protocols. Then, the preparation of microscopic slides started, which included harvesting of cells by centrifugation (100× g, ROTOFIX 32A centrifuge, Hettich, Tuttlingen, Germany), followed by hypotonic treatment (0.075 mol/L KCl; Kemika, Zagreb, Croatia), and a new round of centrifugation. The resulting sediments of cells were fixed in several repeating stages with methanol–acetic acid (3:1 v/v; both obtained from Kemika, Zagreb, Croatia) followed by centrifugation. The final lymphocyte suspension was dropped onto clean microscope slides.

[3] = test system: human peripheral blood lymphocytes; test: Lymphocyte proliferation / cytotoxicity (CBPI, RI); format: cell-based; conditions: 24 h, citrinin 7.50 µg/mL, CBD 3.15 µg/mL, bleomycin 1.25 µg/mL
Text: On the same slides, parameters of cell proliferation, cytostasis and cytotoxicity were studied, according to recommendations by OECD 2023 [67]. For that purpose, the numbers of mono-, bi-, tri-, and quadrinuclear cells (i.e., M1, M2, M3, M4) were scored at 400× magnification using a light microscope (Leitz, Oberkochen, Germany). The total number of M1 to M4 cells counted per experimental group was 3000 (i.e., 6 × 500 cells).
Based on the scored ratios of M1 to M4 cells, the Cytokinesis-Block Proliferation Index (CBPI) was calculated, using the formula: CBPI = [(No. of mononucleated cells) + (2 × No. of binucleated cells) + (3 × No. of multinucleated cells)]/(Total number of cells).
To establish the relative number of cell cycles per cell during the period of exposure to cytoB in treated compared to control cultures, the Replication Index (RI) was also calculated according to the formula:RI = {[(<No. binucleated cells> + <2 × No. multinucleated cells>)/(Total number of cells in treated culture)]/[(<No. binucleated cells> + <2 × No. multinucleated cells>) […] (Total number of cells in control culture)]} × 100
Finally, from the obtained values of RI, the cytotoxicity estimate was deduced, as % Cytotoxicity = […].

In the case of bleomycin [Positive Control], the “tail intensity, mean value ± SE” value [1] is reported as 14.81 ± 0.59%, the “Distribution of BNMN Cells with 1 MN” value ([2]; in 6000 BN cells) is reported as 99 ^a,b,c,d,e and the “Distribution of BNMN Cells with 2 MNi” value ([2]; in 6000 BN cells) is reported as 20 ^a,b,c,d,e. For the same substance, the “Distribution of BNMN Cells with 3 MNi” value ([2]; in 6000 BN cells) was 3, the “Distribution of BNNB Cells with 1 NB” value ([2]; in 6000 BN cells) was 85 ^a,b,c,d,e and the “Distribution of BNNB Cells with 2 NBs” value ([2]; in 6000 BN cells) was 12 ^a,b,c,d,e. For the same substance, the “Micronuclei (MNi) and BNMN Cells: Total (BNNB)6000” value ([2]; in 6000 BN cells) was 122 ^a,b,c,d,e, the “Micronuclei (MNi) and BNMN Cells: Total (MNi)6000” value ([2]; in 6000 BN cells) was 148 ^a,b,c,d,e and the “Nuclear Buds (NBs) and BNNB Cells: Total (BNNB)6000” value ([2]; in 6000 BN cells) was 97 ^a,b,c,d,e. For the same substance, the “Nuclear Buds (NBs) and BNNB Cells: Total (NBs)6000” value ([2]; in 6000 BN cells) was 109 ^a,b,c,d,e, the “Nucleoplasmic Bridges (NPBs) and BNNPB Cells: Total (BNNPB)6000” value ([2]; in 6000 BN cells) was 9 ^a,b,c,d,e and the “Nucleoplasmic Bridges (NPBs) and BNNPB Cells: Total (NPBs)6000” value ([2]; in 6000 BN cells) was 9 ^a,b,c,d,e. For the same substance, the “Cell Death: Total (Apoptosis)6000” value ([2]; in 6000 cells) was 94 ^a,b,c,d,e, the “Cell Death: Total (Necrosis)6000” value ([2]; in 6000 cells) was 71 ^a,b,c,d,e and the “Micronuclei (MNi) and BNMN Cells: Mean (BNMN)1000 ± SD” value ([2]; per 1000 BN cells) was 20.3 ± 2.9 ^a,b,c,d,e. For the same substance, the “Micronuclei (MNi) and BNMN Cells: Mean (MNi)1000 ± SD” value ([2]; per 1000 BN cells) was 24.7 ± 2.5 ^a,b,c,d,e, the “Nuclear Buds (NBs) and BNNB Cells: Mean (BNNB)1000 ± SD” value ([2]; per 1000 BN cells) was 16.2 ± 5.0 ^a,b,c,d,e and the “Nuclear Buds (NBs) and BNNB Cells: Mean (NBs)1000 ± SD” value ([2]; per 1000 BN cells) was 18.2 ± 6.5 ^a,b,c,d,e. For the same substance, the “Nucleoplasmic Bridges (NPBs) and BNNPB Cells: Mean (BNNPB)1000 ± SD” value ([2]; per 1000 BN cells) was 1.5 ± 0.8 ^a,b,c,d,e, the “Nucleoplasmic Bridges (NPBs) and BNNPB Cells: Mean (NPBs)1000 ± SD” value ([2]; per 1000 BN cells) was 1.5 ± 0.8 ^a,b,c,d,e and the “Cell Death: Mean (Apoptosis)1000 ± SD” value ([2]; per 1000 cells) was 15.7 ± 5.6 ^a,b,c,d,e. The “Cell Death: Mean (Necrosis)1000 ± SD” value ([2]; per 1000 cells) was 11.8 ± 3.6 ^a,b,c,d,e, the “Cytokinesis-Block Proliferation Index” value ([3]; 3000 cells scored) was 1.60^↓nc, sc, cit, cbd,& and the “Cytotoxicity (%)” value ([3]; deduced from RI) was 41.25%. The “Replication Index (%)” value ([3]; relative to negative control) was 58.75%.
